From patent US20050090428A1, “Porphyrins with virucidal activity” (priority 2002, published 2005)

Experiments:
HIV-1 IIIB = experiment: Screening for virucidal activity against HIV-1 IIIB, MAGI cell assay
HIV-189.6 = experiment: Inactivation of HIV-1 89.6 infectivity; type: cell-based
MAGI cells = experiment: Trypan blue exclusion cytotoxicity test; details: four concentrations of porphyrin
Description: A standard trypan blue exclusion test (Strober, Trypan blue exclusion test of cell viability, p. A.3.3-A.3.4, in J. E. Coligan and A. M. Kruisbeek (ed.), Current protocols in immunology, Wiley-Greene, New York, N.Y., 1994) was used. Compounds at a concentration of 50 μg/ml in growth medium were added to a 96-well plate with MAGI cells. After 72 hr cells were detached by standard trypsin solution (0.25% trypsin-0.05% EDTA) and diluted 1:10 in growth medium. To test cell viability, 1 part of 0.4% trypan blue and 9 parts of diluted cells were mixed, incubated the mixture about 2 min at room temperature, and applied a drop of the trypan blue/cell mixture to a hemacytometer. Using a binocular microscope, the stained (nonviable) and unstained (viable) cells were then counted. The fraction of viable cells was calculated as the number of unstained cells in the wells treated with compound as a percentage of the number in control wells.
The selective index value was defined as the CC50/EC50 ratio.
A trypan blue exclusion test to determine possible toxicity of the test compounds. Compounds at a concentration of 50 μg/ml in growth medium were added to MAGI cells. […] After 72 hr, a trypan blue assay was used to compare cell viability in cells treated with compounds to untreated cells.

[1] = target: T1, binding of HIV-1 IIIB gp120 to CD4 (Human immunodeficiency virus type 1 group M subtype B, UniProt P04578); experiment: gp120-CD4 binding assay (ELISA); details: 1 hr at room temperature
T1 construct: The recombinant IIB gp120 protein (baculovirus-expressed) was obtained from Intracel; purchased Intracel (Cambridge, Mass.) for gp120; host or cells: baculovirus-expressed (gp120)
Description: To investigate the possible effect of porphyrin compounds on binding of HIV-1 IIIB gp120 to CD4, a gp120 CD4 binding assay was developed. The assay was developed as a modification of a capture gp120 ELISA kit (Intracel Corporation). Briefly, a 96-well plate was coated with soluble CD4 and 0.5 μg of HIV-1 IIIB gp120 per well was incubated in the presence or absence of test compounds for 1 hr at room temperature. After four washes with buffer to remove unbound proteins, the bound gp120 was detected by anti-gp120 peroxidase-conjugated antibodies and quantitated by the protocol provided by the manufacturer.

IIIB Env of HIV 1 = IIIB Env of HIV 1 (Human immunodeficiency virus type 1 group M subtype B, UniProt P03375); type: cell-based
SIVmac1A11 = experiment: Inactivation of SIVmac1A11 infectivity; type: cell-based, SIV
[2] = target: T2, HIV-1 Env protein (HXB2 Env) (Human immunodeficiency virus type 1 group M subtype B, UniProt P04578); type: cell-based
T2 construct: expressed in transfected cells; host or cells: 293T cells transfected with pIIIenv3-1 plus pCMVTAT; cocultured with 3T3 cells expressing CD4 and CXCR4

HSV-1(F) or HSV-2(G) = experiment: In vitro HSV inactivation, plaque assay on Vero cells; type: cell-based, herpes simplex virus; details: room temperature, in the dark, up to 60 minutes
Description: Either HSV-1(F) or HSV-2(G) (10^7 pfu) was mixed with 1 ml of porphyrin at the concentration indicated in Dulbecco's modified Eagle's medium (DME) with 1% newborn calf serum. All assays were performed in duplicate. All tubes were wrapped in foil to keep out light, and ambient room light was reduced as much as was practicable. Virus and porphyrin were incubated together at room temperature for times up to 60 minutes (Table 2). Following incubation, 10 fold serial dilutions were performed in DME with 1% newborn serum, using tubes wrapped in foil. Virus was diluted 20,000 fold and plated on Vero cells. Following a 2 hour incubation with the cells, the inoculum was removed and cells were overlaid with DME with 1% newborn calf serum and 0.2% human gamma globulin. Cells were fixed and stained, and plaques counted, 2 days after infection.

89.6 Env = 89.6 Env (Human immunodeficiency virus type 1 group M subtype B, UniProt Q73372); type: cell-based, HIV-1
Chain of 89.6 Env (Q73372 32-719 limits assumed): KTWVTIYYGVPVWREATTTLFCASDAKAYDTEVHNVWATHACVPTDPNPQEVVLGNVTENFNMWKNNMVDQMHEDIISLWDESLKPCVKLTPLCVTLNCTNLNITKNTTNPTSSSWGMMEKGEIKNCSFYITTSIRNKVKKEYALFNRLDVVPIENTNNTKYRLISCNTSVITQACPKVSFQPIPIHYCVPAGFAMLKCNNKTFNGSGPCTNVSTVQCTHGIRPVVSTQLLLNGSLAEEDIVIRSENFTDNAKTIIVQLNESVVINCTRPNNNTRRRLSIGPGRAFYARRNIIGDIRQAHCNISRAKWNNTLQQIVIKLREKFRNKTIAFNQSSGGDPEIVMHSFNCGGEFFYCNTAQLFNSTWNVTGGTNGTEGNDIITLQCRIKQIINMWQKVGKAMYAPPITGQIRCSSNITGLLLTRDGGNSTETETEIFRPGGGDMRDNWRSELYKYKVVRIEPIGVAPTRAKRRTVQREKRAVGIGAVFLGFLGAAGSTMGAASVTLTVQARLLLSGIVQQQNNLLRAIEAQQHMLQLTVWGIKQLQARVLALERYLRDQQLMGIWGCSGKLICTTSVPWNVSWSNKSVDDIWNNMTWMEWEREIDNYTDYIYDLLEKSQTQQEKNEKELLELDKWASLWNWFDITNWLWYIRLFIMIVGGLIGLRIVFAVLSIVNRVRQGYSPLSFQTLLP
Chain of 89.6 Env (Q73372 509-719 partner limits assumed): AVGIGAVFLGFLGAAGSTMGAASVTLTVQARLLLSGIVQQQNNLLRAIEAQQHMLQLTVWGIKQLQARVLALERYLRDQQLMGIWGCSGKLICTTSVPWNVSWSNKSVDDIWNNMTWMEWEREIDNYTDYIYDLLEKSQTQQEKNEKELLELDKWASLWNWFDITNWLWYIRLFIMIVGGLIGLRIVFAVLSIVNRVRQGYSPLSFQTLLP

Compound	activity at low concentration (HIV-1 IIIB; 0.5 μg/ml, HIV-1 IIIB, MAGI cells)	kinetics of inactivation of HIV-1 IIIB (HIV-1 IIIB; 2 to 60 minutes)	activity against HIV in words (HIV-1 IIIB; MAGI screening assay, HIV-1 IIIB)	infected cells remaining (HIV-1 IIIB; after 2 min incubation)	HIV-1 89.6 inactivated (HIV-189.6) [%]	CC50 (concentration that reduced the viability of cells by 50%) (MAGI cells) [µg/mL]	inhibition of gp120/CD4 binding in words [1]	inhibition of HIV-induced cell fusion in words (IIIB Env of HIV 1)	SIVmac1A11 inactivated (SIVmac1A11) [%]	Presence of nuclei in syncytia, pIIIenv X4, 6 h [2]	inhibition of HIV-induced cell fusion in words [2]	selective index CC50/EC50 (HIV-1 IIIB)	inactivating HSVs (HSV-1(F) or HSV-2(G))	Presence of nuclei in syncytia, VV89.6 envt R5, 6 h (89.6 Env)	Presence of nuclei in syncytia, VV89.6 envt R5, 23 h (89.6 Env)	Presence of nuclei in syncytia, VV89.6 envt X4, 23 h (89.6 Env)
sulfonated 5,10,15,20-tetra-naphthalen-1-yl-porphyrin [TNapPS]	significant activity	inhibited viral growth almost completely	most active	approximately 1%	76	75	completely inhibit binding	Complete inhibition	88	−	complete inhibition					
O=S(=O)(O)c1ccc(-c2c3nc(c(-c4ccc(S(=O)(=O)O)cc4)c4ccc([nH]4)c(-c4ccc(S(=O)(=O)O)cc4)c4nc(c(-c5ccccc5)c5ccc2[nH]5)C=C4)C=C3)cc1 [TPPS3, meso-tetraphenylporphyrin trisulfonate]						50				−		10	active	−/4+	−/4+ (key: 4+: more than 50% of nuclei are in syncytia; 3+: 30 to 50% of nuclei are in syncytia; 2+: 30 to 10% of nuclei are in syncytia; +: less than 10% of nuclei are in syncytia; −: no syncytia were observed)	1+/4+ (key: 4+: more than 50% of nuclei are in syncytia; 3+: 30 to 50% of nuclei are in syncytia; 2+: 30 to 10% of nuclei are in syncytia; +: less than 10% of nuclei are in syncytia; −: no syncytia were observed)
